Test results as given in PMC10167355, “Optimized spirooxindole-pyrazole hybrids targeting the p53-MDM2 interplay induce apoptosis and synergize with doxorubicin in A549 cells” (Scientific Reports, 2023).
“Also recorded” adds a separate entry of the source.

Key:
p53 = assay: Western blot of p53 level in A549 cells; assay type: cell-based, human
Experimental: (§1) A549 cells were treated with different concentrations of the molecules as indicated. Cell extracts were prepared as described. Ten-20 μg of total proteins were resolved on 4–15% Mini protean TGX precast gels (Bio-Rad) and transferred to nitrocellulose membrane using 1704158 Trans-Blot Turbo Mini NC Transfer Packs (Bio-Rad) in a Trans-Blot Turbo apparatus (Bio-Rad). Membranes were blocked with 5% non-fat dry milk in 0.1% Tween-20 in PBS for 1 h, then incubated for 1 h at room temperature or overnight at 4 °C with the appropriate primary antibody. The following antibodies were employed: anti-p53 (DO-1, sc-126, Santa Cruz Biotechnology, 1:20.000), anti-p21 (2946, Cell Signaling, 1:2000), anti-MDM2 (SMP14, sc-965, Santa Cruz Biotechnology, 1:200), anti β-actin (AC-74, Sigma-Aldrich, 1:30.000); secondary anti-mouse IgG peroxidase conjugate (A9044, Sigma–Aldrich, 1:10.000) and secondary anti-rabbit peroxidase conjugate (A9169, Sigma-Aldrich, 1: 12.000). Detection was carried out with ECL FAST PICO (ECL-1002, Immunological Sciences, Roma, Italy). Chemiluminescence was analysed by Alliance LD, UVITEC Cambridge (Cambridge, UK).

A549 cells = assay: Annexin-V-FITC / propidium iodide apoptosis assay; assay type: cell-based, human; conditions: A549, compounds at their specific IC75s, three days
Experimental: The induction of apoptosis was evaluated in A549 cells characterized by wild-type p53 and MDM2 proteins. They were plated at the opportune concentration (see above) into 25 cm^2 flasks in 10 mL complete medium. After 6–8 h the compounds were added at their specific IC75s, as previously calculated by the MTT assay.
All floating and adherent cells were harvested three days later, washed with normal saline buffer, and apoptosis determined by double staining with Annexin-V-FITC and propidium iodide (PI) (rh AnnexinV/FITC Kit, Bender MedSystem GmbH, Vienna, Austria). Briefly, 0.5 × 10^6 cells were resuspended in binding buffer 1× and stained with 5 μL of Annexin-V-FITC. After 10 min incubation 10 μL of PI were added and samples incubated for 5 min. Samples were immediately analyzed using a Flow Cytometer (FACScan, BD Biosciences, Milano, Italy) with dedicated software.

MDM2 = assay: Western blot of MDM2 level in A549 cells; assay type: cell-based, human
Experimental: as §1

p21 = assay: Western blot of p21 level in A549 cells; assay type: cell-based, human; conditions: A549
Experimental: as §1

activated PBL = assay: MTT assay on normal PBL activated with PHA and recombinant IL-2; assay type: cell-based; conditions: Homo sapiens, mean ± SD of 4–6 IC50 values
Experimental: (§2) Human tumor cell lines A2780 [ovary, adenocarcinoma, accession number HTL98008, obtained from Interlab Cell Line Collection (ICLC), Genova, Italy], A549 (lung, carcinoma, HTL03001, ICLC), MDA-MB-453 (breast, carcinoma, HTL01013, ICLC), and HepG2 (liver, carcinoma, HB-8065, American Type Culture Collection, Rockville, MA, USA ) were plated at 1.4 × 10^4/ml, 0.65 × 10^4/mL, 4.7 × 10^4/mL, and 1.0 × 10^4/mL, respectively, in 180 μL complete medium (RPMI 1640 for A2780 and A549 and DMEM for MDA-MB-453 and HepG2) into flat-bottomed 96-well microtiter plates. After 6–8 h cells were treated with 20 μL containing five 1:10 fold concentrations of our compounds diluted in FCS containing 3% DMSO. As normal non-cancer cell targets we used peripheral blood lymphocytes obtained from three healthy volunteers, isolated by gradient centrifugation (Lympholyte-H Cell Separation Media, EuroClone, Pero, MI, Italy) and stimulated with 1% phytohemagglutinin and 100 U/ml recombinant IL-2. One week after stimulation cells were ready for use at 15,000/well.
In both cases, after 72 h treatment, the MTT assay was applied as described elsewhere. […] IC100 and IC75 were extrapolated from the mean concentration–response curves.

[1] = test system: MDA-MB-453 (breast; mutant p53); assay: MTT antiproliferative assay, MDA-MB-453; assay type: cell-based; conditions: Homo sapiens; MDA-MB-453, MTT, 72 h treatment, mean ± SD of 5–6 data
Experimental: as §2
In both cases, after 72 h treatment, the MTT assay was applied as described elsewhere. The IC50 values were calculated from the analysis of single concentration–response curves, each final value is the mean of 5–6 experiments. IC100 and IC75 were extrapolated from the mean concentration–response curves.

[2] = A549, drug concentration equivalent to IC75 (30 µM), fold over mock
[3] = A549, 0.2 µM derivative alone or 14 µM doxorubicin alone
[4] = A549, 0.2 µM derivative plus 14 µM doxorubicin

Cc1c(C(=O)C2C(c3ccc(C(F)(F)F)cc3)C3CSCN3C23C(=O)Nc2ccccc23)cnn1-c1ccccc1 (stereo not drawn) [8k, 6'-(5-Methyl-1-phenyl-1H-pyrazole-4-carbonyl)-7'-(4-(trifluoromethyl)phenyl)-1',6',7',7a'-tetrahydro-3'H-spiro[indoline-3,5'-pyrrolo[1,2-c]thiazol]-2-one]
melting point: 138 to 139 °C
p53 level (p53; [2]): did not induce any changes; also recorded: did not induce p53
p53 level, single agent (p53; [3]): did not increase
p53 level, combined treatment compared to doxorubicin alone (p53; [4]): no further increases
apoptotic activity (A549 cells): highly significant apoptotic activity; also recorded: considerable high level of apoptosis
MDM2 modulation, dose–response (MDM2; A549, 24 h, 0.01, 0.1, 1, 10 µM): induced MDM2 down regulation at any concentration; also recorded: dose-dependent down regulation of MDM2
MDM2 level (MDM2; [2]): downmodulated MDM2; also recorded: clear down modulation; also recorded: down regulation of MDM2
MDM2 level, single agent (MDM2; [3]): slight but not significant MDM2 increase
MDM2 level, combined treatment compared to doxorubicin alone (MDM2; [4]): no further increases
p21 level, single agent (p21; 0.2 µM derivative alone or 14 µM doxorubicin alone): did not increase
p21 level, combined treatment compared to doxorubicin alone (p21; 0.2 µM derivative plus 14 µM doxorubicin): no further increases
IC50 (activated PBL; PBL A): 49.8 ± 3.2 µM
IC50 (activated PBL; PBL B): 55.3 ± 1.4 µM
IC50 (activated PBL; PBL C): 50.9 ± 1.2 µM
IC50 [1]: 21.4 µM
